{
  "source": "patent US12655116B2",
  "about": "“Substituted isophthalic acid diamides” (Bayer Aktiengesellschaft, priority 2020, dated 2026)",
  "key": {"VERPE [1]": {"test_system": "VERPE", "assay": "Pre-emergence herbicidal action against VERPE", "type": "in vivo, Veronica persica", "how_it_was_run": "(§1)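 Greenhouse pots of sandy loam held seeds covered with soil, onto which the compound was applied before emergence. An aqueous suspension or emulsion of WP or EC was used at 600 to 800 l/ha with 0.2% wetting agent. Percent damage was judged visually at 3 weeks.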"}, "PHBPU [2]": {"test_system": "PHBPU", "assay": "Post-emergence herbicidal action against PHBPU", "type": "in vivo, Pharbitis purpurea", "how_it_was_run": "(§2)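 Foliar application at one-leaf stage of formulated test compounds, aqueous spray at 600–800 l/ha with 0.2% wetting agent. Greenhouse, optimal conditions, ~3 weeks; damage scored visually in % relative to untreated plants.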"}, "AVEFA": {"test_system": "AVEFA", "assay": "Pre-emergence herbicidal action against AVEFA", "type": "in vivo, Avena fatua", "details": "80 g/ha, pre-emergence", "how_it_was_run": "as §1"}, "VERPE [3]": {"test_system": "VERPE", "assay": "Post-emergence herbicidal action against VERPE", "type": "in vivo, Veronica persica", "details": "20 g/ha", "how_it_was_run": "as §2"}, "AMARE [4]": {"test_system": "AMARE", "assay": "Post-emergence herbicidal action against AMARE", "type": "in vivo, Amaranthus retroflexus", "details": "20 g/ha, visual assessment about 3 weeks after treatment, 100% = plants have died, 0% = like control plants", "how_it_was_run": "as §2"}, "ALOMY [5]": {"test_system": "ALOMY", "assay": "Pre-emergence herbicidal action against ALOMY", "type": "in vivo, Alopecurus myosuroides", "details": "80 g/ha, pre-emergence, scored visually after 3 weeks vs untreated controls (100% = plants have died, 0% = like control plants)", "how_it_was_run": "as §1"}, "ECHCG [6]": {"test_system": "ECHCG", "assay": "Pre-emergence herbicidal action against ECHCG", "type": "in vivo, Echinochloa crus-galli", "details": "80 g/ha", "how_it_was_run": "as §1"}, "ALOMY [7]": {"test_system": "ALOMY", "assay": "Post-emergence herbicidal action against ALOMY", "type": "in vivo, Alopecurus myosuroides", "details": "dosage 20 g/ha, visual assessment about 3 weeks after treatment vs untreated controls", "how_it_was_run": "as §2"}, "MATIN [8]": {"test_system": "MATIN", "assay": "Post-emergence herbicidal action against MATIN", "type": "in vivo, Matricaria inodora", "details": "dosage 20 g/ha", "how_it_was_run": "as §2"}, "LOLRI": {"test_system": "LOLRI", "assay": "Pre-emergence herbicidal action against LOLRI", "type": "in vivo, Lolium rigidum", "details": "80 g/ha", "how_it_was_run": "as §1"}, "ECHCG [9]": {"test_system": "ECHCG", "assay": "Post-emergence herbicidal action against ECHCG", "type": "in vivo, Echinochloa crus-galli", "how_it_was_run": "as §2"}, "SETVI": {"test_system": "SETVI", "assay": "Post-emergence herbicidal action against SETVI", "type": "in vivo, Setaria viridis", "how_it_was_run": "as §2"}, "PHBPU [10]": {"test_system": "PHBPU", "assay": "Pre-emergence herbicidal action against PHBPU", "type": "in vivo, Pharbitis purpurea", "how_it_was_run": "as §1"}, "MATIN [11]": {"test_system": "MATIN", "assay": "Pre-emergence herbicidal action against MATIN", "type": "in vivo, Matricaria inodora", "details": "dosage 80 g/ha", "how_it_was_run": "as §1"}, "DIGSA [12]": {"test_system": "DIGSA", "assay": "Post-emergence herbicidal action against DIGSA", "type": "in vivo, Digitaria sanguinalis", "how_it_was_run": "as §2"}, "POLCO": {"test_system": "POLCO", "assay": "Pre-emergence herbicidal action against POLCO", "type": "in vivo, Polygonum convolvulus", "details": "dosage 80 g/ha", "how_it_was_run": "as §1"}, "DIGSA [13]": {"test_system": "DIGSA", "assay": "Pre-emergence herbicidal action against DIGSA", "type": "in vivo, Digitaria sanguinalis", "how_it_was_run": "as §1"}, "ABUTH": {"test_system": "ABUTH", "assay": "Pre-emergence herbicidal action against ABUTH", "type": "in vivo, Abutilon theophrasti", "how_it_was_run": "as §1"}, "VIOTR": {"test_system": "VIOTR", "assay": "Pre-emergence herbicidal action against VIOTR", "type": "in vivo, Viola tricolor", "how_it_was_run": "as §1"}, "AMARE [14]": {"test_system": "AMARE", "assay": "Pre-emergence herbicidal action against AMARE", "type": "in vivo, Amaranthus retroflexus", "how_it_was_run": "as §1"}, "[15]": {"details": "80 g/ha, scored visually after 3 weeks vs untreated controls (100% = plants have died, 0% = like control plants)"}},
  "data": [
    {"smiles": "Cc1c(C(=O)Nc2nnnn2C)ccc(C(F)F)c1C(=O)NC(C)C1CC1", "note": "(stereo not drawn) [Example 1-339]", "values": [
      {"measurement": "Pre-emergence action against VERPE in %", "setting": "VERPE [1]; dosage 20 g/ha", "result": 100, "unit": "%"},
      {"measurement": "Pre-emergence action against VERPE in %", "setting": "VERPE [1]; dosage 80 g/ha", "result": 100, "unit": "%"},
      {"measurement": "Post-emergence action against PHBPU in %", "setting": "PHBPU [2]; dosage 5 g/ha", "result": 80, "unit": "%"},
      {"measurement": "Post-emergence action against PHBPU in %", "setting": "PHBPU [2]; dosage 20 g/ha", "result": 90, "unit": "%"},
      {"measurement": "Pre-emergence action against AVEFA in %", "setting": "AVEFA", "result": 100, "unit": "%"},
      {"measurement": "Post-emergence action against VERPE in %", "setting": "VERPE [3]", "result": 90, "unit": "%"},
      {"measurement": "Post-emergence action at 20 g/ha against AMARE in %", "setting": "AMARE [4]", "result": 90, "unit": "%"},
      {"measurement": "Pre-emergence action against ALOMY (herbicidal activity)", "setting": "ALOMY [5]", "result": 90, "unit": "%"},
      {"measurement": "Pre-emergence action against ECHCG in %", "setting": "ECHCG [6]", "result": 100, "unit": "%"},
      {"measurement": "Post-emergence action against ALOMY in %", "setting": "ALOMY [7]", "result": 80, "unit": "%"},
      {"measurement": "Post-emergence action against MATIN in %", "setting": "MATIN [8]", "result": 80, "unit": "%"},
      {"measurement": "Pre-emergence action against LOLRI in %", "setting": "LOLRI", "result": 100, "unit": "%"},
      {"measurement": "Post-emergence action against ECHCG in %", "setting": "ECHCG [9]; dosage 5 g/ha", "result": 90, "unit": "%"},
      {"measurement": "Post-emergence action against ECHCG in %", "setting": "ECHCG [9]; dosage 20 g/ha", "result": 90, "unit": "%"},
      {"measurement": "Post-emergence action against SETVI in %", "setting": "SETVI; dosage 5 g/ha", "result": 80, "unit": "%"},
      {"measurement": "Post-emergence action against SETVI in %", "setting": "SETVI; dosage 20 g/ha", "result": 90, "unit": "%"},
      {"measurement": "Pre-emergence action against PHBPU in %", "setting": "PHBPU [10]; dosage 20 g/ha", "result": 100, "unit": "%"},
      {"measurement": "Pre-emergence action against PHBPU in %", "setting": "PHBPU [10]; dosage 80 g/ha", "result": 100, "unit": "%"},
      {"measurement": "Pre-emergence action against MATIN in %", "setting": "MATIN [11]", "result": 100, "unit": "%"},
      {"measurement": "Post-emergence action against DIGSA in %", "setting": "DIGSA [12]; 5 g/ha", "result": 90, "unit": "%"},
      {"measurement": "Post-emergence action against DIGSA", "setting": "DIGSA [12]; 20 g/ha", "result": 90, "unit": "%"},
      {"measurement": "Pre-emergence action against POLCO in %", "setting": "POLCO", "result": 80, "unit": "%"},
      {"measurement": "Pre-emergence action against DIGSA in %", "setting": "DIGSA [13]; dosage 20 g/ha", "result": 100, "unit": "%"},
      {"measurement": "Pre-emergence action against DIGSA in %", "setting": "DIGSA [13]; dosage 80 g/ha", "result": 100, "unit": "%"},
      {"measurement": "Pre-emergence action against ABUTH (herbicidal activity)", "setting": "ABUTH; [15]", "result": 100, "unit": "%"},
      {"measurement": "Pre-emergence action against ABUTH (herbicidal activity in percent)", "setting": "ABUTH; dosage 20 g/ha, scored visually after 3 weeks vs untreated controls, 100% = plants have died, 0% = like control plants", "result": 90, "unit": "%"},
      {"measurement": "Pre-emergence action against VIOTR in %", "setting": "VIOTR; dosage 20 g/ha", "result": 100, "unit": "%"},
      {"measurement": "Pre-emergence action against VIOTR in %", "setting": "VIOTR; dosage 80 g/ha", "result": 100, "unit": "%"},
      {"measurement": "Pre-emergence action against AMARE in %", "setting": "AMARE [14]; 20 g/ha, scored visually after 3 weeks vs untreated controls, 100% = plants have died, 0% = like control plants", "result": 100, "unit": "%"},
      {"measurement": "Pre-emergence action against AMARE in %", "setting": "AMARE [14]; [15]", "result": 100, "unit": "%"}
    ]}
  ]
}
